# Results: article PMC8854719, “Phase 1A/1B dose-escalation and -expansion study to evaluate the safety, pharmacokinetics, food effects and antitumor activity of pamiparib in advanced solid tumours” (British Journal of Cancer, 2021)
# Assay: Safety and tolerability: adverse events, dose-limiting toxicities, MTD, RP2D (Phase 1A/1B)
# Assay type: in vivo
# Experimental: This was an open-label, Phase 1, dose-escalation/dose-expansion study, conducted across six study centres in Australia. The dose-escalation phase evaluated twice-daily (BID) and once-daily (QD) dosing, and the dose-expansion phase evaluated the BID RP2D from the dose-escalation phase and food effects (Fig. 1). The food-effects cohort comprised two sequences: fast followed by fed (sequence 1) and fed followed by fast (sequence 2). […] The decision to proceed to the next dose cohort was determined by the Safety Monitoring Committee and followed a modified 3 + 3 escalation scheme. […] When ≥2 DLTs occurred in the first 23 days of a dose level, the next lower dose level was declared the MTD. Safety was monitored and DLTs were assessed in all dose cohorts. […] The food-effects cohort investigated the effects of food on the PK of pamiparib in patients with advanced solid tumours.
# The QD dosing regimen was added as an amendment to the protocol with the purpose of exploring the feasibility of a more convenient regimen.
# Safety and tolerability were assessed throughout the study by monitoring adverse events (AEs), serious AEs, clinical laboratory measurements and physical examinations. Adverse events were categorised according to their severity (National Cancer Institute Common Terminology Criteria for Adverse Events v4.03) and relationship to the study treatment.
structure (smiles),measurement,setting,value
C[C@]12CCCN1CC1=NNC(=O)c3cc(F)cc4[nH]c2c1c34 [pamiparib],"Pleural effusion, AE of any grade",5.0 mg BID (n = 3),1 (33.3) n (%)
same,"Pyrexia, AE of any grade",5.0 mg BID (n = 3),0 (0.0) n (%)
same,Treatment-emergent AE,5.0 mg BID (n = 3),3 (100.0) n (%)
same,Treatment-emergent AE: Grade 3 or higher,5.0 mg BID (n = 3),1 (33.3) n (%)
same,Treatment-emergent AE: Leading to death,5.0 mg BID (n = 3),0 (0.0) n (%)
same,Treatment-emergent AE: Leading to dose interruption,5.0 mg BID (n = 3),1 (33.3) n (%)
same,Treatment-emergent AE: Leading to dose modification,5.0 mg BID (n = 3),1 (33.3) n (%)
same,Treatment-emergent AE: Leading to dose reduction,5.0 mg BID (n = 3),0 (0.0) n (%)
same,Treatment-emergent AE: Leading to treatment discontinuation,5.0 mg BID (n = 3),0 (0.0) n (%)
same,Treatment-emergent AE: Serious,5.0 mg BID (n = 3),2 (66.7) n (%)
same,Treatment-related AE,5.0 mg BID (n = 3),2 (66.7) n (%)
same,Treatment-related AE: Grade 3 or higher,5.0 mg BID (n = 3),0 (0.0) n (%)
same,Treatment-related AE: Leading to death,5.0 mg BID (n = 3),0 (0.0) n (%)
same,Treatment-related AE: Leading to dose interruption,5.0 mg BID (n = 3),0 (0.0) n (%)
same,Treatment-related AE: Leading to dose modification,5.0 mg BID (n = 3),0 (0.0) n (%)
same,Treatment-related AE: Leading to dose reduction,5.0 mg BID (n = 3),0 (0.0) n (%)
same,Treatment-related AE: Leading to treatment discontinuation,5.0 mg BID (n = 3),0 (0.0) n (%)
same,Treatment-related AE: Serious,5.0 mg BID (n = 3),0 (0.0) n (%)
same,"Upper respiratory tract infection, AE of any grade",5.0 mg BID (n = 3),0 (0.0) n (%)
same,"Urinary tract infection, AE of any grade",5.0 mg BID (n = 3),0 (0.0) n (%)
same,"Vomiting, AE of any grade",5.0 mg BID (n = 3),0 (0.0) n (%)
same,"Abdominal pain, AE of any grade",10 mg BID (n = 3),1 (33.3) n (%)
same,"Anaemia, AE of any grade",10 mg BID (n = 3),1 (33.3) n (%)
same,"Ascites, AE of any grade",10 mg BID (n = 3),2 (66.7) n (%)
same,"Back pain, AE of any grade",10 mg BID (n = 3),0 (0.0) n (%)
same,"Constipation, AE of any grade",10 mg BID (n = 3),1 (33.3) n (%)
same,"Cough, AE of any grade",10 mg BID (n = 3),1 (33.3) n (%)
same,"Decreased appetite, AE of any grade",10 mg BID (n = 3),0 (0.0) n (%)
same,"Diarrhoea, AE of any grade",10 mg BID (n = 3),1 (33.3) n (%)
same,Dose-limiting toxicity,10 mg BID (n = 3),0 (0.0) n (%)
same,"Dyspnoea, AE of any grade",10 mg BID (n = 3),1 (33.3) n (%)
same,"Fatigue, AE of any grade",10 mg BID (n = 3),0 (0.0) n (%)
same,"Headache, AE of any grade",10 mg BID (n = 3),0 (0.0) n (%)
same,"Hypoalbuminemia, AE of any grade",10 mg BID (n = 3),0 (0.0) n (%)
same,"Hypomagnesemia, AE of any grade",10 mg BID (n = 3),1 (33.3) n (%)
same,"Hypophosphatemia, AE of any grade",10 mg BID (n = 3),0 (0.0) n (%)
same,"Increased AST, AE of any grade",10 mg BID (n = 3),0 (0.0) n (%)
same,"Muscle spasms, AE of any grade",10 mg BID (n = 3),0 (0.0) n (%)
same,"Nausea, AE of any grade",10 mg BID (n = 3),1 (33.3) n (%)
same,"Neutropenia, AE of any grade",10 mg BID (n = 3),0 (0.0) n (%)
same,"Non-cardiac chest pain, AE of any grade",10 mg BID (n = 3),0 (0.0) n (%)
same,"Pain in extremity, AE of any grade",10 mg BID (n = 3),0 (0.0) n (%)
same,"Peripheral sensory neuropathy, AE of any grade",10 mg BID (n = 3),0 (0.0) n (%)
same,"Pleural effusion, AE of any grade",10 mg BID (n = 3),0 (0.0) n (%)
same,"Pyrexia, AE of any grade",10 mg BID (n = 3),1 (33.3) n (%)
same,Treatment-emergent AE,10 mg BID (n = 3),3 (100.0) n (%)
same,Treatment-emergent AE: Grade 3 or higher,10 mg BID (n = 3),2 (66.7) n (%)
same,Treatment-emergent AE: Leading to death,10 mg BID (n = 3),0 (0.0) n (%)
same,Treatment-emergent AE: Leading to dose interruption,10 mg BID (n = 3),1 (33.3) n (%)
same,Treatment-emergent AE: Leading to dose modification,10 mg BID (n = 3),1 (33.3) n (%)
same,Treatment-emergent AE: Leading to dose reduction,10 mg BID (n = 3),0 (0.0) n (%)
same,Treatment-emergent AE: Leading to treatment discontinuation,10 mg BID (n = 3),0 (0.0) n (%)
same,Treatment-emergent AE: Serious,10 mg BID (n = 3),2 (66.7) n (%)
same,Treatment-related AE,10 mg BID (n = 3),0 (0.0) n (%)
same,Treatment-related AE: Grade 3 or higher,10 mg BID (n = 3),0 (0.0) n (%)
same,Treatment-related AE: Leading to death,10 mg BID (n = 3),0 (0.0) n (%)
same,Treatment-related AE: Leading to dose interruption,10 mg BID (n = 3),0 (0.0) n (%)
same,Treatment-related AE: Leading to dose modification,10 mg BID (n = 3),0 (0.0) n (%)
same,Treatment-related AE: Leading to dose reduction,10 mg BID (n = 3),0 (0.0) n (%)
same,Treatment-related AE: Leading to treatment discontinuation,10 mg BID (n = 3),0 (0.0) n (%)
same,Treatment-related AE: Serious,10 mg BID (n = 3),0 (0.0) n (%)
same,"Upper respiratory tract infection, AE of any grade",10 mg BID (n = 3),0 (0.0) n (%)
same,"Urinary tract infection, AE of any grade",10 mg BID (n = 3),0 (0.0) n (%)
same,"Vomiting, AE of any grade",10 mg BID (n = 3),1 (33.3) n (%)
same,"Abdominal pain, AE of any grade",20 mg BID (n = 3),2 (66.7) n (%)
same,"Anaemia, AE of any grade",20 mg BID (n = 3),0 (0.0) n (%)
